The results in this text go back to US9409880B2, “Modulators of TLR3/dsRNA complex and uses thereof” (The Regents of the University of Colorado, a body corporate, priority 2011, dated 2016).

Molecules are shown by their SMILES.

Data set [1] concerns XMRV-induced IP-10/CXCL10 production. The data set can be described thus: XMRV-induced IP-10 mRNA (RT-PCR) in LNCaP cells. Type of data set: cell-based, human.
In data set [2] the test system is TNF-α and IL-1β production. Put plainly: Cytokine-specific ELISA in RAW 264.7 cells. It is filed as cell-based, Mouse. The settings on record: 27 μM compound. As for the experimental part: A secondary cell assay was used to confirm that compound 4a inhibits the downstream signaling transduction mediated by the formation of the TLR3/dsRNA complex. In addition to TLR3 signaling suppression, the release of the proinflammatory cytokines, TNF-α and IL-1β, were also studied.
RAW cells were planted in 6-well plates at 1,000,000 cells per well with 3 mL of medium (RPMI 1640 medium, supplemented with 10% FBS, penicillin (100 U/mL) and streptomycin ([…])) and grown for 24 h at 37° C. in a 5% CO2 humidified incubator. After 24 h, non-adherent cells and media were removed and replaced with fresh RPMI 1640 medium (3 mL/well). […] In additionally wells, one well was treated with only 4a (27 μM) and the other was treated with nothing. Plates were then incubated for an additional 24 h. […] Approximately 400 μL of supernatant were collected into new tubes, frozen at −80° C. until ready for cytokine measurement. The production of the cytokine interleukin-1β (IL-1β) and TNF-α was quantified with enzyme-linked immunosorbent assays (ELISA) using cytokine-specific capture antibodies, biotinylated monoclonal detection antibodies, and recombinant human cytokine standards according to commercially available ELISA kits from R&D Systems. The cytokine level in each sample was determined in duplicate.
In general terms: ELISA stands for enzyme-linked immunosorbent assay.

For the next data set, the system named is RAW 264.7 cells. The data set can be described thus: WST-1 cytotoxicity assay. Type of data set: cell-based, Mouse. The settings on record: WST-1 methodology; different concentrations. As for the experimental part: This assay was conducted in a 96-well plate with 5,000 cells in 100 μL media (RPMI 1640 medium, supplemented with 10% FBS, penicillin (100 U/mL) and streptomycin ([…])) per well. Eight wells were left empty for blank controls. The plates were incubated (37° C., 5% CO2) overnight to allow the cells to attach to the wells. WST-1 proliferation reagent (Roche) was added to the cells (10 μL per well) and continued to incubate for 1-2 h at 37° C. Plates were checked visually by comparing the colour of wells with media without cells (colour remained pink) with wells contained untreated cells (colour is orange). When a clear difference could be seen by naked eye, results were read by spectrophotometer at 490 nm. Cytotoxicity (%) was determined using the following formula: Cytotoxicity (%)=(1−[Compounds (OD490)−Background (OD490)]/[Control (OD490)−Background (OD490)])×100.
A general note: Tetrazolium assays rely on reduction of a dye to a coloured formazan, in cell work by metabolically active cells.

A further data set deals with T1, TLR2/1 (Mus musculus, UniProt Q9EPQ1+Q9QUN7).
T1 construct: endogenous in cells; host or cells: RAW 264.7
T1 sequence (Q9QUN7 25-784): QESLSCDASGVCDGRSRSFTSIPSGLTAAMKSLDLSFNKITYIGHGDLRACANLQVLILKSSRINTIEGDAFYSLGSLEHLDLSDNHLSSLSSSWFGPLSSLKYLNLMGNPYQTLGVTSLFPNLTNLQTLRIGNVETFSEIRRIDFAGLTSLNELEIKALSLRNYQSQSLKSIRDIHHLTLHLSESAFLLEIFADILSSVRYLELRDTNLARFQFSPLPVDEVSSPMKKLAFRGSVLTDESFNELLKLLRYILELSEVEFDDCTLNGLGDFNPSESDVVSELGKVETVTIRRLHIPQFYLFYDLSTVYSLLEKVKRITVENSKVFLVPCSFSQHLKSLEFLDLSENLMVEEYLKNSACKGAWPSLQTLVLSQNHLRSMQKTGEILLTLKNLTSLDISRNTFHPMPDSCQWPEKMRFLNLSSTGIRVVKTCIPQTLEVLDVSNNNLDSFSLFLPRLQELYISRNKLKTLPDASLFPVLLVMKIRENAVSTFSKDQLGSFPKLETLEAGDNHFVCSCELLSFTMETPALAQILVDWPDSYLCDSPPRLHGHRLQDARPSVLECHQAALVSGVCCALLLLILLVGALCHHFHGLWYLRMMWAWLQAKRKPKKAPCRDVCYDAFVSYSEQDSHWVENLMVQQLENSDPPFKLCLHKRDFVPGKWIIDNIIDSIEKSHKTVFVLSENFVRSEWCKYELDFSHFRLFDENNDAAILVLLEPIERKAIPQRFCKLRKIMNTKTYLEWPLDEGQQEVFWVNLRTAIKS
T1 sequence (Q9EPQ1 25-795 limits assumed): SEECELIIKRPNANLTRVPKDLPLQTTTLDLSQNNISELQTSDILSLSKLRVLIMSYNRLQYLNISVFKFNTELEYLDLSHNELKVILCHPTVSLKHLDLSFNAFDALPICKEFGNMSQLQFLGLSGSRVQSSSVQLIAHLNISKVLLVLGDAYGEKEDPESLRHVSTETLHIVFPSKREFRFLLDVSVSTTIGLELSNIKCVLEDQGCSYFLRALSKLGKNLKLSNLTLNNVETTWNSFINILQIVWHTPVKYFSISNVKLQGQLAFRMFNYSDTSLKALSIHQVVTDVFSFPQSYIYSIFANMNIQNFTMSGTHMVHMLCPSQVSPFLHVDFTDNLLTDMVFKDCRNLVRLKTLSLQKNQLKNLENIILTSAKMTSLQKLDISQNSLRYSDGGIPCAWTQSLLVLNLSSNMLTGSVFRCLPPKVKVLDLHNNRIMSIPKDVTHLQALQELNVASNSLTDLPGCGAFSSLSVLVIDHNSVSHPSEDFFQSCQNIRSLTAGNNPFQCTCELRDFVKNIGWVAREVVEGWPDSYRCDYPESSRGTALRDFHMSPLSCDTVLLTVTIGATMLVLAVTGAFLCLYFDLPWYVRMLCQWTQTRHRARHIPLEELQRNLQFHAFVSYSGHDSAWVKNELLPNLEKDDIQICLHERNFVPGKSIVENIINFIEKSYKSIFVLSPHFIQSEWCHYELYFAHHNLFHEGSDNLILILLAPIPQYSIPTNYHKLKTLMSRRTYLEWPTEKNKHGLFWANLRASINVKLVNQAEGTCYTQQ
Put plainly: RAW264.7 cell nitric oxide TLR selectivity assay (Pam3CSK4). It is filed as cell-based. Particulars: 27 μM.

In the next data set the target is T2, TLR7 (Mus musculus, UniProt P58681).
T2 construct: endogenous in cells; host or cells: RAW 264.7
T2 sequence (P58681 27-1050): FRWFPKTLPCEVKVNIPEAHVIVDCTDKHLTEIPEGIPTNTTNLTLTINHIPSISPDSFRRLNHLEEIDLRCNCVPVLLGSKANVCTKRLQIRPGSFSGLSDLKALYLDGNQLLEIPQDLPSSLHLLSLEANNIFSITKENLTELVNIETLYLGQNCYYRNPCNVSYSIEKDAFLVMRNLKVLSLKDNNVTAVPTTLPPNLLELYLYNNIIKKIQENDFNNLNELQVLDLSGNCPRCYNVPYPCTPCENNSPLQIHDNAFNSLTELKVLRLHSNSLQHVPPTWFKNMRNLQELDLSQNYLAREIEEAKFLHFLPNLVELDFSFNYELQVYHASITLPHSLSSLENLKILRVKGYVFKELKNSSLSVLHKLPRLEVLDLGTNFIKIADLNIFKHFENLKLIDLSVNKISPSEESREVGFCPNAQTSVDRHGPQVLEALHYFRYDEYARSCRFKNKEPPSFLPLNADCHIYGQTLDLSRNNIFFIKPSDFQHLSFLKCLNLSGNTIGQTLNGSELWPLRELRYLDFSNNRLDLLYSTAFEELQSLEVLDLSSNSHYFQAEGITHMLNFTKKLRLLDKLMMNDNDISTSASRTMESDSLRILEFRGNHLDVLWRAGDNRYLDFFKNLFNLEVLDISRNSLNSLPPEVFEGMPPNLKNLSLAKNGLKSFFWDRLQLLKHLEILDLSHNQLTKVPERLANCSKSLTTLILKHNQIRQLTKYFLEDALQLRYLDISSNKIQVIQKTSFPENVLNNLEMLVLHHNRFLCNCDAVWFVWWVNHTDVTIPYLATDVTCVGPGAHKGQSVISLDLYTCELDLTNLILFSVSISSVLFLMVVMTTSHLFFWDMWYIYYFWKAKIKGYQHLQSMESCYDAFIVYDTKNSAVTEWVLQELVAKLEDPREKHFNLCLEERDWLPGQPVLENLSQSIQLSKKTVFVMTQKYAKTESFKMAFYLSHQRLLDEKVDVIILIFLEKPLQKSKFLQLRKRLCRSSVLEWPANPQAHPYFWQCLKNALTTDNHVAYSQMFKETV
Put plainly: RAW264.7 cell nitric oxide TLR selectivity assay (R848). The settings on record: 27 μM. Type of data set: cell-based.

For `O=C(N[C@H](Cc1ccccc1)C(=O)O)c1sc2cc(F)ccc2c1Cl` [Compound 4a, (R)-2-(3-chloro-6-fluorobenzo[b]thiophene-2-carboxamido)-3-phenylpropanoic acid], the “XMRV-induced IP-10 production” value in data set [1] (50 μM, RT-PCR of IP-10 mRNA) is listed as “inhibits XMRV-induced IP-10 production”. Also, in data set [1] (10 and 25 μM, RT-PCR), the “XMRV-induced IP-10/CXCL10 production” value was “inhibition of XMRV-induced IP-10/CXCL10 production”. In addition, in data set [2], the IL-1β production result was “inhibits” and the TNF-α production entry is recorded as “inhibits”. Moreover, the “toxicity in RAW 264.7 cells” value with RAW 264.7 cells was “did not show any significant toxicity”. Besides, on TLR2/1, the “effect on TLR2/1 signaling” value was “without significantly affecting other TLRs”. The “effect on TLR7 signaling” value on TLR7 is “without significantly affecting other TLRs”.
